Reference: ChEMBL document CHEMBL1201862, “PubChem BioAssay data set” (2004)
Activity calls are given as the source filed them.

Experiments:
[1] = test system: HEK293; test: EBV LMP1 TES2 canonical NF-kB signalling blockers – cell-based, HEK293, luciferase, cherry-pick, dose response (AID 588343); format: functional; details: Homo sapiens
[2] = target: T1, Heat shock factor protein 1 (Mus musculus, UniProt P38532); test: decrease of HSF1-responsive luciferase luminescence – cell-based, NIH3T3, dose retest, confirmation (AID 2382); format: functional;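 further: NIH3T3 fibroblasts with HSF1-driven luciferase reporter stressed by proteasome inhibitor MG132; luminescence from HSF1-driven luciferase expression after 8 hours of MG132 stress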
T1 sequence (P38532 whole entry): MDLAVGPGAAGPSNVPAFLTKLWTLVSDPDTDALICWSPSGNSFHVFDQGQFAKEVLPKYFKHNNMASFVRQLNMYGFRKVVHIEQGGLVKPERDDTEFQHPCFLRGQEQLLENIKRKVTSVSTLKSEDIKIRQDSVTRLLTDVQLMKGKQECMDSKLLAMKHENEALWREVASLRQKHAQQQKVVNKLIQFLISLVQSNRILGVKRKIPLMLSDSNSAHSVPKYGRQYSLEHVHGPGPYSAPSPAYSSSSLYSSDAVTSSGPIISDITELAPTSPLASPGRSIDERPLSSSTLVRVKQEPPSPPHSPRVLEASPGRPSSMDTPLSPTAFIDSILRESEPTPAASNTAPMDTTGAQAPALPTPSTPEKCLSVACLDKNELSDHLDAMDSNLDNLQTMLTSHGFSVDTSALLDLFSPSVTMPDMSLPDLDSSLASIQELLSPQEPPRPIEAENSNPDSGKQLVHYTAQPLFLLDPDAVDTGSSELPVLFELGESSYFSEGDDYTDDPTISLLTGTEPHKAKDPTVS

[3] = target: T2, Leucine aminopeptidase (Plasmodium falciparum 3D7, UniProt Q8IL11); test: P. falciparum M17LAP inhibitors, primary screen, biochemical, fluorogenic H-Leu-NHMec substrate, 1536-well (AID 1619); format: functional
T2 sequence (Q8IL11 whole entry): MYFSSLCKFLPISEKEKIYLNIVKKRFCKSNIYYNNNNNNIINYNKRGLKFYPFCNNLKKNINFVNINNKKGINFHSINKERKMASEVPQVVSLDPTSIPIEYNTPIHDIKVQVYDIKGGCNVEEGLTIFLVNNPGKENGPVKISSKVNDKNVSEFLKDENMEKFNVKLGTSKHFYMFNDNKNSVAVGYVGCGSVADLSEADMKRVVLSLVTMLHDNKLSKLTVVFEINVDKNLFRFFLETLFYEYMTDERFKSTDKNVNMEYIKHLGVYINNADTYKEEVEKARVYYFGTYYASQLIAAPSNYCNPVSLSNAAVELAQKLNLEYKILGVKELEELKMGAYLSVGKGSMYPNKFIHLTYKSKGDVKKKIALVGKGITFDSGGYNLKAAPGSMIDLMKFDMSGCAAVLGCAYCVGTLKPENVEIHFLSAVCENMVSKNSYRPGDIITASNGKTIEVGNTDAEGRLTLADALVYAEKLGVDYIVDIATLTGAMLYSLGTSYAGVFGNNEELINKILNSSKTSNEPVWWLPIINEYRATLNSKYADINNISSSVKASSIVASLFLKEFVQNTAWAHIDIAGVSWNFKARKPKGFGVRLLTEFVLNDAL

[4] = test system: H4; test: Luminescence Cell-Based Dose Response HTS to Identify Activators of 5'UTR Stem-Loop Driven Prion Protein mRNA Translation in H4 Neuroglioblastoma Cells. [Related pubchem assays: 1829 (Project Summary), 1814 (Primary HTS)]; format: functional; details: Homo sapiens
[5] = Luminescence Cell-Based Dose Confirmation HTS to Identify Activators of 5'UTR Stem-Loop Driven Alpha-Synuclein mRNA Translation in H4 Neuroglioblastoma Cells. [Related pubchem assays: 1829 (Project Summary), 1814 (Primary HTS)]; format: functional
[6] = Luminescence Cell-Based Dose Response HTS to Identify Activators of Luciferase Translation or Activity in H4 […] Cells. [Related pubchem assays: 1829 (Project Summary), 1814 (Primary HTS)]; format: functional
[7] = NIH3T3 cell viability loss – ATP luminescence, mouse fibroblasts, counter-screen, dose response (AID 2010); format: functional, cell-based;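 further: cells exposed to compound for about 90 hours before reading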
[8] = Trypanosoma cruzi growth suppression in host cells – NIH3T3 host cells, beta-gal luminescence, confirmation (AID 2044); format: functional, cell-based;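 further: intracellular parasites grown in NIH/3T3 mouse fibroblasts as host cells; luminescent beta-galactosidase reporter signal from transgenic T. cruzi replicating inside host cells; inhibitors lower the luminescence signal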
[9] = target: T3, DNA repair protein RAD52 homolog (Homo sapiens, UniProt P43351); format: functional, biochemical
T3 sequence (P43351 whole entry): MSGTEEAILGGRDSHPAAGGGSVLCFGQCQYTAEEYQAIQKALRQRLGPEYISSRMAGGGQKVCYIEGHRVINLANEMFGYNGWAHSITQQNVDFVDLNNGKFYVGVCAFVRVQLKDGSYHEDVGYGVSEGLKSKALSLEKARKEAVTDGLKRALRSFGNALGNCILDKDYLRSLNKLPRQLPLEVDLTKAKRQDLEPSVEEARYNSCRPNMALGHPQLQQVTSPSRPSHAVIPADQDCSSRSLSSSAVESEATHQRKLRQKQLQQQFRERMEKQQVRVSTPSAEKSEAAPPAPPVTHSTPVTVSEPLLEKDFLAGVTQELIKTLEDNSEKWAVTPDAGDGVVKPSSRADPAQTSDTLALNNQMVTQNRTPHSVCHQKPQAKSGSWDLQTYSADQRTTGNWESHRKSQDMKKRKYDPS

[10] = blockade of melanocortin 4 receptor signaling – cell-based, plate reader, cherry pick, counter-screen for LGR2 antagonist project, dose response (AID 743444); format: functional;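 further: transfected HEK 293 cells stimulated with alpha-MSH peptide; potency of inhibitors of the alpha-MSH evoked signal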
[11] = toxicity toward HepG2 liver cells – cell-based, plate reader, cherry-pick, antagonist series, cytotoxicity control, dose response (AID 743416); format: functional
[12] = blockers of bursicon-stimulated LGR2 cAMP reporter – cell-based, HEK293, CRE-luciferase reporter, cherry pick, set 2, dose response (AID 743343); format: functional;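 further: transfected cells were stimulated with diluted bursicon conditioned medium after compound addition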
[13] = cells; format: functional
[14] = Vero E6 cell cytotoxicity, dose response, cytotoxicity control for non-replicating M. tuberculosis project, secondary assay (AID 492998); format: functional, VeroE6; details: Vero C1008
[15] = THP-1 cell cytotoxicity, dose response, cytotoxicity control for non-replicating M. tuberculosis project (AID 489025); format: functional
[16] = target: Heat shock protein HSP 90-alpha (Homo sapiens, UniProt P07900); format: functional, organism-based
[17] = target: T4, Fatty acid synthase (Homo sapiens, UniProt P49327); test: inhibition of human FAS-TE enzyme activity – biochemical, kinetic fluorescence intensity, dose response (AID 624326); format: functional;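 further: rate of fluorescence rise from hydrolysis of a fluorogenic O-methyl fluorescein ester substrate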
[18] = target: T4, Fatty acid synthase; test: inhibition of human FAS-TE enzyme activity – biochemical, endpoint fluorescence intensity, uHTS hits, dose response (AID 624327); format: functional;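 further: fluorescence from hydrolysis of an O-methyl fluorescein acyl ester substrate by the enzyme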
[19] = cells; format: functional, cell-based
[20] = cells; format: functional, cell-based; remark: listed apart in the source
[21] = A549 cell cytotoxicity, dose response, cytotoxicity control, plate reader, cherry-pick, antagonist series (AID 743412); format: functional, cell-based
[22] = luciferase reporter signal suppression in cells – H4 neuroglioma cells, luminescence, dose response (AID 1990); format: functional, cell-based
[23] = Luminescence Cell-Based Dose Response HTS to Identify Inhibitors of 5'UTR Stem-Loop Driven Prion Protein mRNA Translation in H4 Neuroglioblastoma Cells. [Related pubchem assays: 1827 (Project Summary), 1813 (Primary HTS)]; format: functional
[24] = alpha-synuclein stem-loop luciferase translation blockers – H4 neuroglioma cells, luminescence, confirmation (AID 1988); format: functional, cell-based

T4 sequence (P49327 whole entry): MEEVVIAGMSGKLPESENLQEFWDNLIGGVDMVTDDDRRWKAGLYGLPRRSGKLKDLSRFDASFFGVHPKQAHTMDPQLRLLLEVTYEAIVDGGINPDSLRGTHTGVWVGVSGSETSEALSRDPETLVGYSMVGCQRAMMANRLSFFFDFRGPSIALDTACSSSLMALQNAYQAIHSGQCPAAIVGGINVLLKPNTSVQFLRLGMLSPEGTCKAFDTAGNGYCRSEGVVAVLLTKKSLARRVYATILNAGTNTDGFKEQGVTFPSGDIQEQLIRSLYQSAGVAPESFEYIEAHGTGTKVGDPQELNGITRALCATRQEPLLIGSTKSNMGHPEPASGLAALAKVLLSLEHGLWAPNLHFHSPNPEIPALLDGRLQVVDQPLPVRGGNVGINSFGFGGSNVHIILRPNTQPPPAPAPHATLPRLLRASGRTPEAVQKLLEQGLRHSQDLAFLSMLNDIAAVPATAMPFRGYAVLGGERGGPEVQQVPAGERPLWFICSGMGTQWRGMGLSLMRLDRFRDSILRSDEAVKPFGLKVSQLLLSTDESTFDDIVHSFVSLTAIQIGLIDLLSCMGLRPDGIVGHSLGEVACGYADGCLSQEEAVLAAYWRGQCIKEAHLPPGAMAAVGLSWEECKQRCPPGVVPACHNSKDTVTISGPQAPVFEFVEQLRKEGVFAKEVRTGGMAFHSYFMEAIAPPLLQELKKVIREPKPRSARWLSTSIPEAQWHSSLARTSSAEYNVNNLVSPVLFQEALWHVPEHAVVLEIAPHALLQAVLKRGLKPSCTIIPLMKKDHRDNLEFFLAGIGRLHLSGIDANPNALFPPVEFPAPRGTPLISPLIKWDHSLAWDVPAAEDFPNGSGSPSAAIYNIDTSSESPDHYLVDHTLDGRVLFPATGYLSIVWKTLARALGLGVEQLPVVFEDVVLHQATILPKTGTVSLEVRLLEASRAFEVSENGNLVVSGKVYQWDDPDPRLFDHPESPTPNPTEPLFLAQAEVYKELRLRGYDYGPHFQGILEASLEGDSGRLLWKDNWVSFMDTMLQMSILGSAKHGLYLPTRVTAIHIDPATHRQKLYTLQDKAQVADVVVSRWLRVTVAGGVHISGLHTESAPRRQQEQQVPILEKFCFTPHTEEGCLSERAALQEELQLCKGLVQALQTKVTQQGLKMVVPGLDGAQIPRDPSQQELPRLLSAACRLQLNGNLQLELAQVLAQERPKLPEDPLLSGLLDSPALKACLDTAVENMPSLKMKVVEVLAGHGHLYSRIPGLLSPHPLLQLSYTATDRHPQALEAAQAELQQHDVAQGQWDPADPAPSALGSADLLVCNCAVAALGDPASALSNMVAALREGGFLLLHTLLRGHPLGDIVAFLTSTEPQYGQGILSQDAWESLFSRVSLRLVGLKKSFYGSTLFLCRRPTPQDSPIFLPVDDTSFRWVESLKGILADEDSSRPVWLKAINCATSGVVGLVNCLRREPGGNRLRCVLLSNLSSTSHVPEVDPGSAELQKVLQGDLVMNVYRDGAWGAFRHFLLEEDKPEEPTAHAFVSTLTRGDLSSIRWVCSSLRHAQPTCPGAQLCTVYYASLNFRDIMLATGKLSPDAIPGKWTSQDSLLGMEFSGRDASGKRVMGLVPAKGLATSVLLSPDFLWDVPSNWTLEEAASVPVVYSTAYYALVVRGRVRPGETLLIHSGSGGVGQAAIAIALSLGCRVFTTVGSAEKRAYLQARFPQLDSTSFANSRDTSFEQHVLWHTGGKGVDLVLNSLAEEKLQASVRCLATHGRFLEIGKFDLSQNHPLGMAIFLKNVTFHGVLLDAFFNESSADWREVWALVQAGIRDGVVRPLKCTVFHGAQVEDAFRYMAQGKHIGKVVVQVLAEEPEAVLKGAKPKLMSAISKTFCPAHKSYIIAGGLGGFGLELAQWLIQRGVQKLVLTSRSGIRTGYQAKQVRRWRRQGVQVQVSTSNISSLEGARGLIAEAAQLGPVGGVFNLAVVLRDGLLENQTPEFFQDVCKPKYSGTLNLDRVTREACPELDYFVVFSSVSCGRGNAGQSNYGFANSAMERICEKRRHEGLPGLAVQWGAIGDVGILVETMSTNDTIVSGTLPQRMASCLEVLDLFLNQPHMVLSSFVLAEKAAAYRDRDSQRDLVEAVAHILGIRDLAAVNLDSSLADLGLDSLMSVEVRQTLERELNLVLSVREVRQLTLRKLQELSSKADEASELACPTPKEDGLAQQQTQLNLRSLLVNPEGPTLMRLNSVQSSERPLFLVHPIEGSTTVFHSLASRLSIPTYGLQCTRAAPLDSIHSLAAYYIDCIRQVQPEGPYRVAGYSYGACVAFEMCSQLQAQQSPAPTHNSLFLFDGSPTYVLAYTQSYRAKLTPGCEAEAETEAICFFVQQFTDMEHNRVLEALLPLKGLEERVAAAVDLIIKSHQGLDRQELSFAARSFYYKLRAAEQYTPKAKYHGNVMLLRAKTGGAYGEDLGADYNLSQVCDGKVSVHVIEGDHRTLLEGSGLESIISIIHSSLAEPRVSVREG

For CCCn1c(C)cc(C(=O)COC(=O)c2cccnc2O)c1C, the AC50 [1] was 5.4 µM (active), the EC50 [2] was 0.289 µM (active) and the IC50 [3] was 15.3 µM (active).

With COc1cc2c(cc1OC)C(c1ccc(-c3ccccc3Cl)o1)=NCC2 the AC50 [1] was 15.2 µM (active).

In the case of COc1cccc(-c2nc(N3CCN(C)CC3)c3ccccc3n2)c1O, the EC50 [4] is reported as > 120 µM (not active), the EC50 [5] is reported as > 120 µM (not active) and the EC50 [6] is reported as 12.9 µM (active). The EC50 [7] was > 60 µM (not active), the EC50 [8] was < 0.1 µM (active) and the AC50 [9] was 3.52 µM (active).

In the case of CCOC(=O)c1sc(NC(=O)Nc2ccccc2F)nc1C, the AC50 [10] is reported as 4.34 µM (active), the AC50 [11] is reported as > 52 µM (inactive) and the AC50 [12] is reported as 2.48 µM (active).

For CN1C(=O)C(=C(Nc2ccccc2)SCc2ccccc2Cl)C(=O)N(C)C1=O, the IC50 [13] was 3.96 µM (active), the CC50 [14] was > 20 µM (active) and the CC50 [15] was > 40 µM (active).

With CC(C)(C)SCCNC(=O)c1ccc(Cl)c([N+](=O)[O-])c1 the AC50 [16] was 2.84 µM (active), the IC50 [17] was 5.65 µM (active) and the IC50 [18] was 6.39 µM (active).

In the case of CCC(c1nnnn1Cc1ccco1)N(CCc1ccccc1)Cc1cc2cc(C)ccc2nc1O (stereo unspecified), the EC50 [19] is reported as > 29.9 µM (inactive) and the IC50 [20] is reported as > 29.9 µM (inactive).

With Cc1ccc(-c2nnc(NC(=O)c3ccco3)o2)c(C)c1 the IC50 [13] was 0.81 µM (active), the CC50 [14] was 17.5 µM (active) and the CC50 [15] was > 40 µM (active).

With C=CCc1c(C)nc2cc(-c3ccc(C)cc3)nn2c1O the AC50 [21] was 13.6 µM (active), the AC50 [10] was 26.2 µM (active) and the AC50 [11] was 22.6 µM (active). For the same compound, the AC50 [12] was 26.4 µM (active).

In the case of CCc1nc(SCC(=O)c2ccc3c(c2)OCCO3)c2ccccc2n1, the AC50 [1] is reported as 32.8 µM (active).

With O=C(Nc1cccc(Cl)c1N1CCCC1)c1ccc([N+](=O)[O-])o1 the IC50 [13] was 18.4 µM (active), the CC50 [14] was 12.4 µM (active) and the CC50 [15] was 24 µM (active).

With CC(=O)OCCc1c2ccccc2c(CCCN(C)C)c2ccccc12 the EC50 [22] was > 120 µM (not active), the EC50 [23] was > 120 µM (not active) and the EC50 [24] was > 120 µM (not active). The AC50 [9] was 11.2 µM (active).
